This is an account of results in patent US5608143A, “External regulation of gene expression” (E. I. Du Pont de Nemours and Company, priority 1994, dated 1997).

Structures are written as SMILES.

Assay [1] deals with 2-2 promoter/HRA recombinant gene. The experiment in a line: RNAse protection analysis of HRA (ALS) mRNA in leaves of tobacco transformed with 2-2 promoter/HRA gene. Format: in vivo. The following applies: excised leaves, 200 mg/l in 0.5× Hoagland's, 16-24 hours. The procedure: The expression of stable cytoplasmic mRNA transcribed from the wild type and transforming ALS genes in transformed plants were measured by RNAse protection analysis. In this manner, expression of the pDuPS22 construction was distinguished from the wild type ALS genes by virtue of the fact that the pDUPS22 transcript has a 2-2 untranslated leader that is divergent from the untranslated leader of the native ALS genes. […]
RNAse protection assays were carried out using the protocol of Zinn et al. (Zinn et al. Cell (1983) 34, 865-879). […] The sizes of the labelled RNA fragments remaining after digestion with RNAse T1 and RNAse A were determined by electrophoresis using 6% denaturing polyacrylamide gels.

Assay [2] relates to tobacco leaf pieces (callus formation). The experiment in a line: Callus formation of leaf pieces from kanamycin-resistant tobacco shoots on selective medium. It is filed as cell-based. The following applies: sixteen kanamycin-resistant shoots, three weeks; 10 ppb chlorsulfuron and/or 100 ppm D5293. From the text:
Callus formation was scored as plus or minus after three weeks of growth.

The subject of assay [3] is tobacco T2 gene (T2 mRNA). The assay can be described thus: Northern analysis of T2 mRNA in roots of chemically treated tobacco. It is filed as in vivo, N. tabacum (Petite Havana SRI). The following applies: treated vs control plants. From the text: The procedures described for the isolation of the petunia cDNA clone P6.1 in Example 4 were repeated using N. tabacum (Petite Havana SRI) as the starting plant material. Differential screening of the resulting tobacco cDNA library prepared using poly(A)^+ RNA from the roots of N-(aminocarbonyl)-2-chlorobenzenesulfonamide-treated tobacco plants identified a cDNA clone representing an N-(aminocarbonyl)-2-chlorobenzenesulfonamide-inducible mRNA species. This clone was designated T2.
A Northern blot of total RNA from the roots of untreated and N-(aminocarbonyl)-2-chlorobenzenesulfonamide-treated tobacco plants was probed with nick-translated T2.1 to determine the size of the corresponding T2 mRNA. The methods used for these procedures were described in Example 4.

Assay [4] relates to petunia P6.1 gene (P6 RNA). The experiment in a line: Northern / RNAse protection analysis of P6 RNA in roots of chemically treated petunia. Format: in vivo, Petunia (Mitchell).
Source text: Petunia (Mitchell) seeds were germinated in soil and allowed to grow for one month under standard greenhouse conditions. Plants were transferred to a hydroponic growth apparatus in a greenhouse using foam plugs to support the plants. These plugs were then placed in holes in a wooden bDard and placed over a stainless steel sink containing 0.5× Hoagland's solution. The solution was aerated using standard aquarium pumps, and was changed weekly. After one month of hydroponic growth, plants were transferred to stainless steel trays containing either fresh 0.5 × Hoagland's or 0.5× Hoagland's containing 0.2 g per liter of N-(aminocarbonyl)-2-chlorobenzenesulfonamide. Root tissue was harvested after six hours of treatment.
Ten μg (2 mg/ml) of total RNA from control and N-(aminocarbonyl)-2-chlorobenzenesulfonamide-treated roots was denatured by adding 10 μl of deionized formamide, 3.5 μl formaldehyde, 4 μl 5× MEN buffer (40 mM MOPS pH 7.0, 10 mM sodium acetate, 1 mM EDTA) and incubating at 65° C. for 15 minutes. […] RNA was stained in the presence of 10 mM sodium phosphate pH 6.8 and 1 μg/ml acridine orange for 30 minutes. The gel was then desrained in 10 mM sodium phosphate for 30 minutes, and the RNA was visualized on a UV transilluminator, photographed, and blotted to nitrocellulose (Millipore HAWP). To do this, Whatman 3MM paper was placed below the gel on a glass plate so that the ends of the paper extended into 20× SSC. A sheet of nitroccllulose which had been prewet with 2× SSC was placed on top of the gel followed by a layer of Whatman 3MM, then a stack of paper towels 10 cm high. A glass plate and weight were then placed on top of the stack. Following an overnight transfer, the filter was rinsed briefly in 2× SSC, air dried, and baked in vacuo for 2 hours at 80° C.
The filters were prehybridized for 5 hours in plastic dishes at 42° C. using the hybridization buffer described earlier. Plasmid p6.1 was nick-translated by combining 1 μg of DNA with 5 μl 10× buffer (0.5M Tris-HCl pH 8.0, 0.1M MgSO4, 10 mM DTT and 0.5 mg/ml BSA), 5 μl 0.3 uM d(AGT)TP, 5 μl ^32 P-dCTP (Amersham, 10 mCi/ml, 400 Ci/mmole), 1 μl DNA polymerase 1 (5 U/μl, Boehringer-Mannheim), and 1 μl of 0.1 μg/ml DNAse 1 in a total volume of 50 μl. […] The reaction was then incubated for 5 minutes at 70° C., and labelled DNA was separated from unincorporated nucleotides by Sephadex® G-50 column chromatography. The prehybridization solution was removed from the bag and replaced with hybridization solution containing nick-translated plasmid P6.1 DNA at a concentration of 1×10^6 cpm/ml. […] Filters were washed twice with 2× SSC, 0.1% SDS at 42° C. followed by two washes in 0.1× SSC, 0.1%SDS at 60° C. […]
Assay [5] deals with 2-2 gene (In 2-2 mRNA). The assay can be described thus: RNA slot blot / Northern analysis of 2-2 mRNA in roots of chemically treated corn. Set-up: In2-2 induction level: key to the marks not given beside the values. Format: in vivo, corn (Missouri 17). Here is the method:
Details of the techniques used to perform the procedures used in Example 2 are presented in Example 1. The cDNA library made using poly(A)^+ RNA from the roots of N-(aminocarbonyl)-2-chlorobenzenesulfonamide-treated Missouri 17 corn plants (described in Example 1) was analyzed for additional cDNA clones representing mRNAs induced by substituted benzenesulfonamides. […] This colony was designated In 2-2.
A small scale plasmid preparation was performed on the plasmid contained in colony In 2-2. This plasmid was designated pIn 2-2. An aliquot of pIn 2-2 was nick translated as described earlier. A slot blot containing total RNA from N-(aminocarbonyl)-2-chlorobenzenesulfonamide-treated and untreated roots was prepared and probed with nick-translated pIn 2-2 as described for pIn 2-1 in Example 1.
The pIn 2-2 small scale plasmid preparation was digested to completion with Pst I and analyzed by agarose gel electrophoresis. The cDNA insert of the plasmid was excised by Pst I as a single 1200 bp fragment. Nick-translatedpIn 2-2 was used to probe a Northern blot of RNA from both untreated and N-(aminocarbonyl)-2-chlorobenzenesulfonamide-treated roots.
The ability at various substituted benzenesulfonamides and related compound to induce the expression of the 2-1, 2-2, and 5-2 genes of Missouri 17 corn was evaluated. Corn seeds were germinated and grown hydroponically in 2 liter beakers as described in Example 1. On the tenth day, plants were transferred into fresh 0.5× Hoagland's solution containing the chemical to be tested. Root tissue was harvested from the plants after six hours of chemical treatment, quick-frozen by immersion in liquid N2, and stored at -80° C. until analyzed.
Details of the RNA isolation and slot blot analysis procedures are presented in Example 1. Total RNA was prepared from the root tissue of plants that had been treated with various chemicals using the previously described guanidine thiocyanate procedure. Replicate blots, each consisting of 2 μg of total RNA from tissues treated with each of the chemicals shown in tables 8 and 9, were prepared on nitrocellulose membranes using a Minifold II® Slot-blotter (Schleicher & Schuell) following the manufacturer's recommeneded procedure. Replicate blots were prehybridized and hybridized with cDNA probes made by nick translation of the purified cDNA inserts from plasmid pIn 2-1, pIn 2-2-3, and pIn 5-2. Slot blots were washed as described in Example 1 and exposed to Kodak X-OMAT XAR-5 film for 24 hours at -80° C. using a single Du Pont Lightning Plus intensifying screen. Film was developed using a Kodak X-OMAT film processor. The abililty of a chemical to induce the mRNA encoded by the three inducible genes was evaluated in one of two ways. Qualitative evaluation was performed by direct visual comparison of the autoradiographic signal intensities on the films for the hybridization of each probe to the different RNA samples. Quantitative evaluation was performed by cutting each slot containing hybridized RNA from the blot, immersing it in 2 ml of Du Pont ECONOFLUOR® scintillation cocktail and counting the radioactivity in each slot in a scintillation counter. The net amount of radioactivity hybridizing to N-(aminocarbonyl)-2-chlorobenzenesulfonamide-treated RNA after subtraction of radioactivity hybridizing to untreated RNA is presented in Table 15.

[6] abbreviates: hydroponic 200 mg/l, sampled at 2, 4, 6 and 22 hours, roots.
Setting [7] is: hydroponic treatment, corn roots.

With `NC(=O)NS(=O)(=O)c1ccccc1Cl`, the “induction of HRA mRNA (RNAse protection)” value in assay [1] is reported as “induction of high levels of stable cytoplasmic HRA mRNA”. Besides, the “Callus formation (shoots whose leaf pieces formed callus / shoots tested)” value in assay [2] is 0/16. For the same compound, the “hybridization of T2.1 to root RNA (Northern blot)” value in assay [3] is “hybridized to an mRNA of 800 nt”. Further, in assay [4] (hydroponic 0.2 g per liter, six hours, petunia roots), the “hybridization of P6.1 probe to root RNA (Northern blot)” value is “hybridized to an 800 bp message”. Further, in assay [4] (setting [6]), the “time at which P6 RNA reached maximum levels” value is ≤ 6 h and the “time at which P6 RNA was detectable” value was ≤ 2 h. In assay [4] (petunia roots, treated vs untreated plants), the “RNAse protection of P6.1 probes by root RNA” value is given as “Protected fragments of 110 bp were observed in induced but not control RNA”. For the same compound, in assay [5] (hydroponic application, 100 ppm), the In2-2 induction level entry is reported as “+++++”. Also, in assay [5] (setting [7]), the “hybridization of pIn 2-2 to root RNA (Northern blot)” value is “present only in RNA from the roots” and the “hybridization of pIn 2-2 to root RNA (slot blot)” value was “hybridizes strongly”.
